Structures are written as SMILES.

In the first data set the target is T1, pancreatic lipase (PL) (Sus scrofa, UniProt P00591).
T1 construct: Enriched preparation from porcine pancreas; purchased Sigma L-0382; host or cells: porcine pancreas (tissue preparation)
T1 sequence (P00591 1-450): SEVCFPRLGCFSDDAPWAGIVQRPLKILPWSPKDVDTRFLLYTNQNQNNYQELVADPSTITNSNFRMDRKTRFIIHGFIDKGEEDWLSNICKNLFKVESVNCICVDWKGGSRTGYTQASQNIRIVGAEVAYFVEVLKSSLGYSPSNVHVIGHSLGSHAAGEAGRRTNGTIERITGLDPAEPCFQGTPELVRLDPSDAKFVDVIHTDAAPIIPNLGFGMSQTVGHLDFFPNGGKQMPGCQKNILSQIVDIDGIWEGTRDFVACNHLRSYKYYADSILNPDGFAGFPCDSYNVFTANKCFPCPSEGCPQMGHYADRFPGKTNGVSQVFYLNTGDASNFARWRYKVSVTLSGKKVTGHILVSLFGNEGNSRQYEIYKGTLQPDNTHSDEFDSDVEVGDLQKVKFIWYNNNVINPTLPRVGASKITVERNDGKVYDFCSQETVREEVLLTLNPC
Put plainly: Pancreatic lipase inhibition assay (release of radiolabeled oleate from glycerol tri[9,10(n)-3H]oleate/tripalmitin substrate). The class given is biochemical. The note with it: enriched lipase preparation from porcine pancreas; 30° C., 30 min; up to 8 concentrations. The protocol: The activity of the compounds was assayed as follows:
1. Preparation of the substrate:
80 μL of tripalmitin (85 mM in chloroform) are mixed with 5 μL of glycerol tri[9,10(n)-^3H]oleate (5 mCi/mL in toluene) in a 12 mL polypropylene vessel. Evaporation in a rotary evaporator (50° C.) and addition of 4 mL of 200 mM Tris/HCl (pH 7.6), 0.8% TX-100 are followed by ultrasound treatment of the mixture (Branson B-12 sonifier, output level 4, 3×2 min with 1 min intervals on ice) until a homogeneous milky suspension is produced.
Lipase buffer: 80 mM Tris/HCl (pH 7.6), 600 mM NaCl, 8 mM CaCl2, 8 mM benzamidine, 2 mM Pefabloc (Roche Biochemicals) (add the inhibitors only on the day of the assay)
Pancreatic lipase: Enriched preparation from porcine pancreas (Sigma order No. L-0382) dissolved in lipase buffer (100 000 units/500 μL)
5 μL of test substance (in 100% DMSO) or DMSO (control) are mixed with 10 μL of substrate and 5 μL of lipase (in this sequence) and incubated at 30° C. (Eppendorf Thermomixer, 350 min^−1) for 30 min. After addition of 325 μL of methanol/chloroform/n-heptane (10/9/7) and 105 μl of 0.1 M K2CO3, 0.1 M H3BO3 (pH 10.5 adjusted with 1 M KOH) and vigorous mixing, the phases are separated by centrifugation (8000 rpm, Eppendorf centrifuge, 4° C.). 140 μL portions of the aqueous supernatant (contains the liberated radiolabeled oleate; 70% recovery) are transferred into 20 mL scintillation vials and mixed with 6 mL of scintillation cocktail (Beckman Ready Safe). After vigorously mixing and incubating at room temperature for 2 h, the radioactivity is measured in a liquid scintillation counter (Beckman, L8008, tritium channel with quench curve, measurement time 20 min).
Substances are routinely tested in each concentration in three independent incubation mixtures each with duplicate determination after phase separation (SD<0.02). Background values (reaction under the same conditions but without lipase) are subtracted from all values (corresponds predominantly to the content of glycerol trioleate or free oleate in the substrate preparation in the aqueous phase, <5% of the radioactivity employed). The inhibition of the pancreatic lipase enzymatic activity by a test substance is determined by comparison with an uninhibited control reaction (presence of lipase=0% inhibition; absence of lipase 100% inhibition in each case after background correction). The IC50 is calculated from an inhibition plot with up to 8 concentrations of the test substance. The software package GRAPHIT (Elsevier-BIOSOFT) is used for curve fitting and IC50 determination.
`CC(C)Oc1nn(-c2cccc(OC(F)(F)F)c2)c(=O)o1` [Example 220, 3-(3-Trifluoromethoxyphenyl)-5-isopropoxy-3H-(1,3,4)-oxadiazol-2-one] had a concentration for half-maximal inhibition (IC50) of 1800 nM.

`O=c1oc(OCc2ccccc2)nn1-c1ccc(OC(F)(F)F)cc1` [Example 213, 3-(4-Trifluoromethoxyphenyl)-5-benzyloxy-3H-(1,3,4)-oxad iazol-2-one] had an IC50 of 500 nM. On the same count and under the same terms, for `COc1nn(-c2cccc(OCc3ccccc3)c2)c(=O)o1` [Example 216, 3-(3-Benzyloxyphenyl)-5-methoxy-3H-(1,3,4)-oxadiazol-2-one] the value was 800 nM; for `CCOc1nn(-c2ccc(OC(F)(F)F)cc2)c(=O)o1` [Example 210, 3-(4-Trifluoromethoxyphenyl)-5-ethoxy-3H-(1,3,4)-oxad iazol-2-one], 700 nM. Turning to `COc1nn(-c2ccc(Oc3ccc(Cl)cc3)cc2)c(=O)o1` [Example 229, 3-(4-(4-Chlorophenoxy)phenyl)-5-methoxy-3H-(1,3,4)-oxad iazol-2-one], the IC50 came out at 600 nM. Same read-out and setting: for `CCCCOc1nn(-c2ccc(OC(F)(F)F)cc2)c(=O)o1` [Example 212, 3-(4-Trifluoromethoxyphenyl)-5-butoxy-3H-(1,3,4)-oxadiazol-2-one] the value was 500 nM; for `COc1nn(-c2ccc(NC(=O)c3ccc(C(F)(F)F)cc3)c(OCc3ccccc3)c2)c(=O)o1` [Example 86, 5-Methoxy-3-(3-benzyloxy-4-(4-trifluoromethylbenzoylamino)phenyl)-3H-(1,3,4)-oxadiazol-2-one], 1500 nM; for `CCOc1nn(-c2cccc(OC(F)(F)F)c2)c(=O)o1` [Example 218, 3-(3-Trifluoromethoxyphenyl)-5-ethoxy-3H-(1,3,4)-oxad iazol-2-one], 700 nM.

Test system in a further data set: not given
Assay: not given
Conditions: not given
Take `CCOc1nn(-c2ccc(OC3CC(C)(C)CC(C)(C)C3)cc2)c(=O)o1` [Example 215, 3-(4-(3,3,5,5-Tetramethylcyclohexyloxy)phenyl)-5-ethoxy-3H-(1,3,4)-oxad iazol-2-one]: the melting point is 111 °C. `COc1nn(-c2ccc(S(=O)(=O)NC3CC(C)CC(C)(C)C3)cc2)c(=O)o1` (centres unmarked) [Example 214, 3-(4-(3,3,5-Trimethylcyclohexylaminosulfonyl)phenyl)-5-methoxy-3H-(1,3,4)-oxadiazol-2-one] gave a melting point of 164 °C.

Consider `COc1nn(-c2cccc(OC3CC(C)(C)CC(C)(C)C3)c2)c(=O)o1` [Example 237, 3-(3-(3,3,5,5-Tetramethylcyclohexyloxy)phenyl)-5-methoxy-3H-(1,3,4)-oxadiazol-2-one], for which the melting point was determined as 68 °C.

Turning to `COc1nn(-c2cccc(COc3cccc(C)c3)c2)c(=O)o1` [Example 239, 3-(3-(3-Methylphenoxymethyl)phenyl)-5-methoxy-3H-(1,3,4)-oxadiazol-2-one], the melting point amounted to 47 °C. Still for that read-out and setting: for `COc1nn(-c2cccc(Oc3ccccc3)c2)c(=O)o1` [Example 232, 3-(3-Phenoxyphenyl)-5-methoxy-3H-(1,3,4)-oxad iazol-2-one] the value was 89 °C; for `COc1nn(-c2ccc(Oc3ccccc3)cc2)c(=O)o1`, 83 °C. For `COc1nn(-c2cccc(-c3ccccc3)c2)c(=O)o1` [Example 240, 3-(3-Phenylphenyl)-5-methoxy-3H-(1,3,4)-oxadiazol-2-one], the melting point stood at 80 °C. On the same count and under the same terms, for `CCOc1nn(-c2cccc(Oc3ccccc3)c2)c(=O)o1` [Example 233, 3-(3-Phenoxyphenyl)-5-ethoxy-3H-(1,3,4)-oxadiazol-2-one] the value was 50 °C; for `COc1nn(-c2ccc(NC(=O)c3ccc(Cl)cc3)c(OCc3ccc(F)cc3)c2)c(=O)o1` [Example 46, 5-Methoxy-3-(4-(4-chlorobenzoylamino)-3-(4-fluorobenzyloxy)phenyl)-3H-(1,3,4)-oxadiazol-2-one], 167 °C. On the same count and under the same terms, the same measure for `CCOc1nn(-c2ccc(OC(F)(F)F)cc2)c(=O)o1` [Example 210, 3-(4-Trifluoromethoxyphenyl)-5-ethoxy-3H-(1,3,4)-oxad iazol-2-one]: 63 °C; for `COc1nn(-c2ccc(Oc3ccc(Cl)cc3)cc2)c(=O)o1` [Example 229, 3-(4-(4-Chlorophenoxy)phenyl)-5-methoxy-3H-(1,3,4)-oxad iazol-2-one]: 68 °C; for `COc1nn(-c2cccc(NC(=O)Nc3ccccn3)c2)c(=O)o1` [Example 59, 5-Methoxy-3-(3-(pyrid-2-yl)aminocarbonylaminophenyl)-3H-(1,3,4)-oxadiazol-2-one]: 81 °C. In turn, `COc1nn(-c2ccc(S(=O)(=O)N3CCOCC3)cc2)c(=O)o1` [Example 208, 3-(4-Morpholinosulfonylphenyl)-5-methoxy-3H-(1,3,4)-oxadiazol-2-one] displayed a melting point of 164 °C.

Consider `COc1nn(-c2ccc(OC(F)(F)F)cc2)c(=O)o1` [Example 209, 3-(4-Trifluoromethoxyphenyl)-5-methoxy-3H-(1,3,4)-oxad iazol-2-one], for which the melting point is 52 °C. `COc1nn(-c2ccc(-c3ccccc3)cc2)c(=O)o1` [Example 238, 3-(4-Phenylphenyl)-5-methoxy-3H-(1,3,4)-oxadiazol-2-one]: the melting point was > 260 °C (dec.).

As usually defined, the IC50 is the point on the concentration scale where inhibition reaches its midpoint. Higher therefore signals weaker potency in that assay. Broadly, the melting point is the temperature, or range, at which the solid turns liquid.

Values taken from US20030236288A1, “Use of substituted 3-phenyl-5-alkoxy-3H-(1,3,4)-oxadizol-2-ones for inhibiting pancreatic lipase” (priority 2002, published 2003).
